Data reported in patent publication US20170233414A1, “DERIVATIVES OF BODIPY” (OREGON HEALTH & SCIENCE UNIVERSITY, priority 2016, published 2017).
Read-outs that look alike come from different tables or passages of the source.

Experiment: Fluorescence properties and quantum yield measurements of the BAA library
Assay type: physicochemical
Set-up: FWHM (full-width-at half max): unit not given here
Experimental: General Instruments. Synthesized sample purification was performed with an Agilent 1260 Infinity HPLC utilizing a C18 column (150mm×21.2 mm). MS (HRMS, ESI) spectra data was collected with an Agilent 6244 TOF LC/MS with diode array detector VL+ and C18 column (4.6 mm×50 mm). Absorbance and fluorescence data were measured on a SpectraMax M5 Microplate reader. NMR spectra, ^1H and ^13C, were recorded on a Bruker ARK400 spectrometer. BAA microscopy screening in cells for organelle specificity and signal-to-background ratio was completed with an Axio Zeiss Light Microscope and 63× oil immersion objective.
Fluorescence Properties and Quantum Yield Measurements. Spectroscopic characterizations were performed in anhydrous DMSO in polystyrene 96 well plate. Analysis included the maximum absorbance wavelength, maximum fluorescence emission wavelength, full-width-at half max, and quantum yield. Quantum yields (φfl) were determined by comparing the area under the emission spectrum of the BAA compound to a reference fluorophore solution at three concentrations using equation 1, where Grad represents the gradient from the plots of integrated fluorescence intensity vs absorbance at three concentrations and q is the refractive index of the solvent. Fluorescein in 0.1 M NaOH (φfl=0.91)^3 was the reference for samples with a max absorbance up to 510 nm, where an excitation of 470 nm was used with the emission integrated between 490 to 800 nm. Rhodamine B in ethanol (φfl=0.70) was the reference for samples with a max absorbance between 511-595 nm, where an excitation of 525 nm was used with the emission integrated between 545 to 800 nm. Cresyl violet in methanol (φfl=0.54)^4 was the reference for samples with a max absorbance above 595 nm, where an excitation of 570 nm was used with the emission integrated between 590 to 800 nm.

[1] = anhydrous DMSO, polystyrene 96 well plate
[2] = anhydrous DMSO, relative to reference fluorophore at three concentrations

SMILES	Stokes Shift (anhydrous DMSO) [nm]	λmax ABS [1] [nm]	λmax EM [1] [nm]	FWHM (full-width-at half max) (anhydrous DMSO, emission)	φfl (quantum yield) [2]	FWHM (full-width-at half max)	Stokes Shift [nm]	λmax ABS [nm]	λmax EM [nm]	φfl (quantum yield)
COc1ccc2c(/C=C(/CC(=O)O)c3ccc4n3[B-](F)(F)[N+]3=C(/C=C/c5c(Cl)ncc6cc(OC)ccc56)C=C(C)C3=C4)c(Cl)ncc2c1 [BAA-1b]	17	580	597	40	0.62					
COc1cc(/C=C/C2=[N+]3C(=Cc4ccc(CCC(=O)O)n4[B-]3(F)F)C(C)=C2)cc(I)c1OC [BAA-3a]	10	569	579	31	0.61					
COc1cc(/C=C(/CC(=O)O)c2ccc3n2[B-](F)(F)[N+]2=C(/C=C/c4cc(I)c(OC)c(OC)c4)C=C(C)C2=C3)cc(I)c1OC [BAA-3b]	13	574	587	34	0.70					
CC1=CC(/C=C/c2ccccc2N2CCN(C)CC2)=[N+]2C1=Cc1ccc(CCC(=O)O)n1[B-]2(F)F [BAA-4a]	19	581	600	56	0.43					
COc1cc(OC)c(/C=C/C2=[N+]3C(=Cc4ccc(CCC(=O)O)n4[B-]3(F)F)C(C)=C2)c(OC)c1 [BAA-5a]	23	592	615	47	0.83					
COc1ccc2c(c1)C(/C=C/C1=[N+]3C(=Cc4ccc(CCC(=O)O)n4[B-]3(F)F)C(C)=C1)C=N2 (centres unmarked) [BAA-6a]	34	609	643	64	0.18					
COc1ccc(/C=C/C2=[N+]3C(=Cc4ccc(CCC(=O)O)n4[B-]3(F)F)C(C)=C2)c(OC)c1C [BAA-7a]	18	582	600	63	0.29					
COc1ccc(/C=C(/CC(=O)O)c2ccc3n2[B-](F)(F)[N+]2=C(/C=C/c4ccc(OC)c(C)c4OC)C=C(C)C2=C3)c(OC)c1C [BAA-7b]	19	581	600	56	0.43					
COc1ccc(/C=C/C2=[N+]3C(=Cc4ccc(CCC(=O)O)n4[B-]3(F)F)C(C)=C2)c2ccccc12 [BAA-8a]	29	594	623	61	0.50					
COc1ccc(B(O)O)c(/C=C/C2=[N+]3C(=Cc4ccc(CCC(=O)O)n4[B-]3(F)F)C(C)=C2)c1 [BAA-9a]	10	569	579	32	0.35					
CCN(CC)c1ccc(/C=C(/CC(=O)O)c2ccc3n2[B-](F)(F)[N+]2=C(/C=C/c4ccc(N(CC)CC)cc4)C=C(C)C2=C3)cc1 [BAA-10b]	82	632	714	102	0.01					
CCCSc1ncc(/C=C/C2=[N+]3C(=Cc4ccc(CCC(=O)O)n4[B-]3(F)F)C(C)=C2)cn1 [BAA-12a]	27	589	616	88	0.10					
COc1ccc(/C=C/C2=[N+]3C(=Cc4ccc(CCC(=O)O)n4[B-]3(F)F)C(C)=C2)cc1F [BAA-13a]	10	576	586	44	0.19					
CC1=CC(/C=C/c2ccc(CC(C)C)s2)=[N+]2C1=Cc1ccc(CCC(=O)O)n1[B-]2(F)F [BAA-14a]	13	594	607	70	0.44					
C=CCc1cc(/C=C/C2=[N+]3C(=Cc4ccc(CCC(=O)O)n4[B-]3(F)F)C(C)=C2)ccc1OC [BAA-15a]	16	581	597	39	0.42					
CC1=CC(/C=C/c2cc(C)c(C)cc2C)=[N+]2C1=Cc1ccc(CCC(=O)O)n1[B-]2(F)F [BAA-16a]	58	552	610	78	0.22					
CC1=CC(/C=C/c2ccc(-c3ccccc3)cc2)=[N+]2C1=Cc1ccc(CCC(=O)O)n1[B-]2(F)F [BAA-17a]						42	12	579	591	0.59
CC1=CC(/C=C/c2ccc(OCc3ccccc3)cc2)=[N+]2C1=Cc1ccc(CCC(=O)O)n1[B-]2(F)F [BAA-18a]	16	577	593	37	0.65					
CC1=CC(/C=C/c2ccc(-c3cccs3)cc2)=[N+]2C1=Cc1ccc(CCC(=O)O)n1[B-]2(F)F [BAA-19a]	13	582	595	35	0.64					
CCSc1ncc(/C=C/C2=[N+]3C(=Cc4ccc(CCC(=O)O)n4[B-]3(F)F)C(C)=C2)cn1 [BAA-20a]	8	577	585	31	0.15					
COc1cc(OCc2ccccc2)ccc1/C=C/C1=[N+]2C(=Cc3ccc(CCC(=O)O)n3[B-]2(F)F)C(C)=C1 [BAA-21a]	26	585	611	46	0.51					
COc1cc(OCc2ccccc2)ccc1/C=C(/CC(=O)O)c1ccc2n1[B-](F)(F)[N+]1=C(/C=C/c3ccc(OCc4ccccc4)cc3OC)C=C(C)C1=C2 [BAA-21b]	20	588	608	50	0.54					
COc1cc(/C=C/C2=[N+]3C(=Cc4ccc(CCC(=O)O)n4[B-]3(F)F)C(C)=C2)ccc1OCc1ccc(F)cc1 [BAA-22a]	17	585	602	49	0.39					
COc1cc(/C=C(/CC(=O)O)c2ccc3n2[B-](F)(F)[N+]2=C(/C=C/c4ccc(OCc5ccc(F)cc5)c(OC)c4)C=C(C)C2=C3)ccc1OCc1ccc(F)cc1 [BAA-22b]	19	582	601	46	0.27					
CC1=CC(/C=C/c2ccc(-c3ccc(C(F)(F)F)cn3)cc2)=[N+]2C1=Cc1ccc(CCC(=O)O)n1[B-]2(F)F [BAA-23a]	11	592	603	30	0.23					
